The test system of assay [1] is biomarkers for myocardial infarction risk. As to conditions: clinical trial; cited from earlier work.
Assay [2] addresses T1, recombinant human FLAP protein (Homo sapiens, UniProt P20292).
T1 construct: made in house; host or cells: Sf9 insect cells (membrane fraction, 100,000 x g pellet)
T1 sequence (P20292 1-161): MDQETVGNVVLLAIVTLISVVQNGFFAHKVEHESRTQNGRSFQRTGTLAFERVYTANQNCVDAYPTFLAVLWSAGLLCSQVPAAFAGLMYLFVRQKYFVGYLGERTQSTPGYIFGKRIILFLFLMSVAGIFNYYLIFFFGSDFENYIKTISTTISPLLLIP
Nature of the assay: FLAP binding assay (SPA, displacement of [125I]L-691,831). As to conditions: membranes of sf9 cells expressing human FLAP, [125I]L-691,831 probe; read-out: hFLAP binding IC50. The method in brief:
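Membranes from sf9 cells expressing human FLAP (5 μg/well) were bound to WGA SPA beads (200 μg/well). Nonspecific binding was defined with 10 μM unlabelled L-691,831.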

In assay [3] the test system is synthesis of LTB4 in human whole blood. Briefly: Human whole blood LTB4 production inhibition assay. It counts as cell-based. As to conditions: heparinized human whole blood, calcimycin 20 μM, plasma LTB4; read-out: HuWB IC50. The method in brief: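 Whole-blood cellular format, heparinized human donors: 15 min compound pretreatment, then 30 min calcimycin stimulation (20 μM final), both at 37° C. Low-speed centrifugation yields plasma, in which LTB4 is read by homogeneous time-resolved fluorescence immunoassay.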

In assay [4] the test system is human glomerulonephritis. The following applies: clinical trial; cited from earlier work.
In assay [5] the test system is apoE/LDL-R double knockout mice. As to conditions: oral dosing, high-fat diet from 2 months of age to 6 months; cited from earlier work.
In assay [6] the test system is ApoExCD4dnT RII mice. The following applies: infusion, treated for four weeks; cited from earlier work.

Results on twelve molecules are retold here after patent publication US9073895B2 (Boehringer Ingelheim International GmbH, priority 2010, dated 2015).

In the case of `O=C(O)[C@@H](c1ccc(OCc2ccc3ccccc3n2)cc1)C1CCCC1` [DG-031], the “effect on biomarkers for myocardial infarction risk” value in assay [1] is “dose-dependent suppression of several biomarkers”.
`Nc1ncc(-c2ccc(C3(C(=O)Nc4ccc(-c5ccncc5)cn4)CCC3)cc2)cn1` [Example 238]: the figures for the IC50 in assay [2] and in assay [3] were 0.00235 µM and 0.0745 µM, respectively.
The corresponding values for `Nc1ncc(-c2ccc(C3(C(=O)Nc4ccc(-c5cccnc5)cn4)CCC3)cc2)cn1` [Example 239, 1-[4-(2-aminopyrimidin-5-yl)phenyl]-N-(3,3'-bipyridin-6-yl)cyclobutanecarboxamide] are 0.00215 µM and 0.144 µM.
In the case of `N#Cc1ccc(NC(=O)C2(c3ccc(-c4cnc(N)nc4)cc3)CCC2)cn1` [Example 241, 1-[4-(2-aminopyrimidin-5-yl)phenyl]-N-(6-cyanopyridin-3-yl)cyclobutanecarboxamide], the IC50 came out at 0.0056 µM in assay [2] and 0.407 µM in assay [3].
For `Nc1ncc(-c2ccc(C3(C(=O)Nc4ccc(N5CCOCC5)c(Cl)c4)CCC3)cc2)cn1` [Example 245, 1-[4-(2-aminopyrimidin-5-yl)phenyl]-N-[3-chloro-4-(morpholin-4-yl)phenyl]cyclobutanecarboxamide] the same measures were 0.0033 µM and 0.046 µM.
With `N#Cc1ccc(NC(=O)C2(c3ccc(-c4cnc(N)nc4)cc3)CCC2)cc1` [Example 250, 1-[4-(2-aminopyrimidin-5-yl)phenyl]-N-(4-cyanophenyl)cyclobutanecarboxamide], the values for the IC50 in assay [2] and in assay [3] were 0.0032 µM and 0.0607 µM, respectively.
For `CN1CCN(c2cc(NC(=O)C3(c4ccc(-c5cnc(N)nc5)cc4)CCC3)ccn2)CC1` [Example 252, 1-[4-(2-aminopyrimidin-5-yl)phenyl]-N-[2-(4-methylpiperazin-1-yl)pyridin-4-yl]cyclobutanecarboxamide], the IC50 is 0.0074 µM in assay [2] and 0.228 µM in assay [3].
Consider `Nc1ncc(-c2ccc(C3(C(=O)Nc4nc(-c5cccnc5)cs4)CCC3)cc2)cn1` [Example 253, 1-[4-(2-aminopyrimidin-5-yl)phenyl]-N-[4-(pyridin-3-yl)-1,3-thiazol-2-yl]cyclobutanecarboxamide], for which the IC50 came to 0.0018 µM in assay [2] and 0.271 µM in assay [3].
The corresponding values for `Nc1ncc(-c2ccc(C3(C(=O)Nc4nc(-c5ccncc5)cs4)CCC3)cc2)cn1` [Example 254, 1-[4-(2-aminopyrimidin-5-yl)phenyl]-N-[4-(pyridin-4-yl)-1,3-thiazol-2-yl]cyclobutanecarboxamide] are 0.0016 µM and 0.111 µM.
The corresponding values for `Cn1cc(-c2ccc(NC(=O)C3(c4ccc(-c5cnc(N)nc5)cc4)CCC3)nc2)cn1` [Example 255, 1-[4-(2-aminopyrimidin-5-yl)phenyl]-N-[5-(1-methyl-1H-pyrazol-4-yl)pyridin-2-yl]cyclobutanecarboxamide] are 0.0025 µM and 0.144 µM.
On to `CC(C)(C)Sc1c(CC(C)(C)C(=O)O)n(Cc2ccc(Cl)cc2)c2ccc(OCc3ccc4ccccc4n3)cc12` [MK-591], for which the effect on proteinuria entry in assay [4] is “reduce proteinuria”.
For `CC(C)c1ccc2c(c1)c(SC(C)(C)C)c(CC(C)(C)C(=O)O)n2Cc1ccc(Cl)cc1` [MK-886], in assay [5], the “decrease in plaque coverage in the aorta” value is on record as 56% and the “decrease in plaque coverage in the aortic root” value is recorded as 43%. In assay [6], the “decrease in plaque area in the aortic root” value was ~40%.
